The values that follow come from publication PMC7695835, “Pharmacological characterisation of novel adenosine A3 receptor antagonists” (Scientific Reports, 2020).

Like-named read-outs stand apart in the source and are kept apart here.

Data set [1] addresses T1, A2AR (Homo sapiens, UniProt P29274).
T1 construct: expressed in transfected cells; host or cells: CHO cells, membrane preparation
As to the kind of experiment: Radioligand binding at A2AR ([3H]NECA, CHO cell membranes). To be noted: 10 nM [3H]NECA; three independent experiments. The procedure:
(§1) All pharmacological methods followed the procedures as described in the literature. In brief, membranes for radioligand binding were prepared from CHO cells stably transfected with hAR subtypes in a two-step procedure. In the first step, cell fragments and nuclei were removed at 1000×g and then the crude membrane fraction was sedimented from the supernatant at 100,000×g. The membrane pellet was resuspended in the buffer used for the respective binding experiments and it was frozen in liquid nitrogen and stored at – 80 °C. […] Ki values from competition experiments were calculated using Prism (GraphPad Software, La Jolla, CA, USA) assuming competitive interaction with a single binding site.

Data set [2] deals with T2, rat A3R (Rattus norvegicus, UniProt P28647).
T2 sequence (P28647 1-320): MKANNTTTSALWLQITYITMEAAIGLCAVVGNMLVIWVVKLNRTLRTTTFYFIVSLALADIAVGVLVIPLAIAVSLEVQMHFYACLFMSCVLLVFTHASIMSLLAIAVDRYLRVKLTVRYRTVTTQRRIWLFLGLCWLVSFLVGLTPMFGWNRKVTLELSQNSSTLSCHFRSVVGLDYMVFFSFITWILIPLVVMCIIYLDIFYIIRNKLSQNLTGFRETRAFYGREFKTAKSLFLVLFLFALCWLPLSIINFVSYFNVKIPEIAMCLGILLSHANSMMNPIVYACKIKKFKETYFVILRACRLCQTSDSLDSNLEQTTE
As to the kind of experiment: NanoBRET ligand-binding, Nluc-rat A3R HEK 293 cells, AV039 tracer. To be noted: for binding at rat A3R: no binding detected below the concentration of 10 μM; for pKi: rat A3R, 100 nM AV039, BRET ratio at 5 minutes, Cheng-Prusoff. For orientation: Bioluminescence resonance energy transfer reports proximity on the nanometre scale.

For data set [3], the target named is T3, A1R (Homo sapiens, UniProt P30542).
T3 construct: expressed in transfected cells
T3 sequence (P30542 1-326): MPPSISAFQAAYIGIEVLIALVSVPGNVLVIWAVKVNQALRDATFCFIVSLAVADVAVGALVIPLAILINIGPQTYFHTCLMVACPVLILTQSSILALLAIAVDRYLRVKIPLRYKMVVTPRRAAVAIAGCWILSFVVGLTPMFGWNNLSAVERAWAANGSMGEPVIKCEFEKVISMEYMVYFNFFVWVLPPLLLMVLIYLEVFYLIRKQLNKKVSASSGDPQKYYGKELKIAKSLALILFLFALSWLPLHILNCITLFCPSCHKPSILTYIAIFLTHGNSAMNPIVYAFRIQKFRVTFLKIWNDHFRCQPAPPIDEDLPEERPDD
In words: Radioligand binding at A1R ([3H]CCPA, CHO cell membranes). The settings on record: 1 nM [3H]CCPA; three independent experiments. The procedure:
as §1

The target of data set [4] is T4, A3R (Homo sapiens, UniProt P0DMS8).
T4 sequence (P0DMS8 1-318): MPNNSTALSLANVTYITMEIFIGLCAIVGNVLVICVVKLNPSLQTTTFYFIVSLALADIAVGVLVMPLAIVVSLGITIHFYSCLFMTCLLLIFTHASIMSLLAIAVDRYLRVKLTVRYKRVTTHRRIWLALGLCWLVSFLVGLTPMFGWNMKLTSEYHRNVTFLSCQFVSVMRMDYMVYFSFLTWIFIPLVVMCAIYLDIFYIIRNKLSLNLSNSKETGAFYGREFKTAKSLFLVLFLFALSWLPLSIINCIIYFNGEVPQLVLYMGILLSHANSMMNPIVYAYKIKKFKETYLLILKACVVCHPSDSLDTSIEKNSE
In words: Radioligand binding at A3R ([3H]HEMADO, CHO cell membranes). To be noted: 1 nM [3H]HEMADO; three independent experiments.

Data set [5] concerns the target T4, A3R. The settings on record: for cAMP accumulation Mean difference between 'NECA' and compound: 10 μM forskolin + NECA IC80 + 1 μM compound. A general note: Changes in cAMP serve as a functional read-out for many G protein-coupled receptors.
Data set [6] concerns the target T3, A1R. The arrangement: method as in Lagarias et al.[19]. The settings on record: 1 nM [3H]CCPA; ref Lagarias et al.[19]; read-out: Radioligand binding Ki A1R; cited from earlier work.
Data set [7] can be described thus: Half-life in PBS (pH 7.4). To be noted: PBS pH 7.4, 1 μM compound.
The target in data set [8] is T1, A2AR. The arrangement: method as in Lagarias et al.[19]. The settings on record: 10 nM [3H]NECA; ref Lagarias et al.[19]; read-out: Radioligand binding Ki A2AR; cited from earlier work.
The nature of data set [9]: in vitro. The settings on record: human, plasma.
Data set [10] is described as follows: Human plasma stability. The settings on record: 1 μM compound.
Data set [11] can be described thus: physchem. To be noted: PBS, pH 7.4.
The target in data set [12] is T4, A3R. As to the kind of experiment: NECA stimulated cAMP inhibition in A3R Flp-In CHO cells. It is filed as cell-based. To be noted: NECA only; lower plateau.
Data set [13] concerns the target T3, A1R. In words: NECA stimulated cAMP inhibition in CHO-K1 cells expressing A1R. It is filed as cell-based. The settings on record: NECA only.
For data set [14], the target named is T4, A3R. In words: HEMADO induced cAMP inhibition at the A3R. It is filed as cell-based. The settings on record: HEMADO only.
Setting [15] is: 10 μM forskolin + NECA IC80 (3.16 nM) + 1 μM compound, mean ± SEM, n = 3.

T1 sequence (P29274 whole entry): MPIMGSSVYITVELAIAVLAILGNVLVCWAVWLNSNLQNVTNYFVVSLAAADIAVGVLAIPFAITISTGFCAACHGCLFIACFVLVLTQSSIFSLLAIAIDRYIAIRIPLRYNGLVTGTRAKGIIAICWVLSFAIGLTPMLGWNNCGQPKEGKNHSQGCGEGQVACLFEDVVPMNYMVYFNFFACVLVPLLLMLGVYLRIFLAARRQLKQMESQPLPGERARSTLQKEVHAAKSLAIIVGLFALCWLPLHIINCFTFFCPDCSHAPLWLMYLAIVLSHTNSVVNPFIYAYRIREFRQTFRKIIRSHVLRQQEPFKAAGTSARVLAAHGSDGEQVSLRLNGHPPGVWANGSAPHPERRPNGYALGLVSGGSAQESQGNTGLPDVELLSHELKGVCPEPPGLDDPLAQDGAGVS

`Cc1onc(-c2ccccc2Cl)c1C(=O)O/N=C(\N)c1ccccn1` [Compound K32] registered an inhibitory constant (Ki) in data set [1] of more than 100 µM. In [2], the “binding at rat A3R” value is listed as “very weak binding” and the pKi was 4.05 ± 0.10. The Ki in data set [3] was more than 100 µM.
As to `N/C(=N\OC(=O)c1ccccc1-c1ccccc1)c1cccnc1` [Compound K33], the values for the Ki in data set [4], in data set [1] and in data set [3] were more than 30 µM, more than 100 µM and more than 100 µM, respectively. Besides, the “cAMP accumulation Mean” value in data set [5] (setting [15]) is listed as 71.97 ±4.74 %10 μM forskolin response. Also, in data set [5], the “cAMP accumulation Mean difference between 'NECA' and compound” value is on record as -11.65 %10 μM forskolin response.
For the compound `Cc1nc(C(=N)NOC(=O)c2c(-c3c(Cl)cccc3Cl)noc2C)cs1` [Compound K18, O4-{[3-(2,6-dichlorophenyl)-5-methylisoxazol-4-yl]carbonyl}-2-methyl-1,3-thiazole-4-carbohydroximamide], the Ki in [6] and in data set [8] was more than 100 µM in each case. For the same compound, the “percentage remaining at 240 min” value in data set [7] was 87%. Also, the half-life at 1 μM was more than 2 h in data set [9] and more than 4 h in data set [11]. In [10], the “percentage remaining after 120 min” value is 90%.
In the case of `Cc1onc(-c2ccccc2Cl)c1C(=O)O/N=C(\N)c1cccnc1` [Compound K10], the Ki in data set [6] and in data set [8] was more than 60 µM each time. In data set [2], the “binding at rat A3R” value is “very weak binding”. Moreover, in data set [2], the negative-log Ki (pKi) is reported as 4.19 ± 0.09.
For `N/C(=N\OC(=O)c1ccc(-c2ccccc2)cc1)c1ccc(Br)cc1` [Compound K36], the Ki in data set [4], in data set [1] and in data set [3] was more than 100 µM throughout. Besides, the “cAMP accumulation Mean” value in data set [5] (setting [15]) is 61.96 ±1.51 %10 μM forskolin response. In addition, the “cAMP accumulation Mean difference between 'NECA' and compound” value in data set [5] is reported as -1.64 %10 μM forskolin response.
Consider `CC(C)[N+](C)(CCOC(=O)C1c2ccccc2Oc2ccccc21)C(C)C` [propantheline, reference compound], for which the half-life at 1 μM in [9] was 0.917 h; in [11], more than 4 h.
In the case of `CCNC(=O)[C@H]1O[C@@H](n2cnc3c(N)ncnc32)[C@H](O)[C@@H]1O` [NECA], the Emin in [12] was -5.02 ±2.4 % 10 µM forskolin response, relative to NECA; in [13] (lower plateau), -5.1 ±1.0 % forskolin response. In addition, in data set [5] (10 μM forskolin + NECA IC80 (3.16 nM), no test compound), the “cAMP accumulation Mean” value turned out to be 60.32 ± 3.41 %10 μM forskolin response. In data set [13], this compound had a Span of 111.4 ±4.0. The compound further yielded a Basal in data set [13] (upper plateau) of 107.5 ±3.4.
For the compound `COc1ccc(-n2nc3c(NC(=O)CCC(=O)NCCOCCOCCNC(=O)CCCCCNC(=O)COc4ccc(/C=C/C5=[N+]6C(=Cc7ccc(-c8cccs8)n7[B-]6(F)F)C=C5)cc4)nc4ccccc4n3c2=O)cc1` [AV039, reference compound], in data set [2] (read-out: KD (saturation binding), fluorescent tracer at Nluc-rat A3R), the Kd was determined as 0.102 ± 0.00759 µM.
Take `Cc1nc(C(N)=NOC(=O)c2c(-c3ccccc3Cl)noc2C)cs1` [Compound K17]: in data set [6], the inhibition constant Ki is more than 30 µM. For the same compound, in data set [2], the “binding at rat A3R” value is listed as “very weak binding” and the negative-log Ki (pKi) came to 4.60 ± 0.09. Besides, in data set [8], the Ki was more than 60 µM.
Regarding `CCCCC#Cc1nc(NC)c2ncn([C@@H]3O[C@H](CO)[C@@H](O)[C@H]3O)c2n1` [HEMADO, (2R,3R,4S,5R)-2-(2-hex-1-ynyl-6-methylaminopurin-9-yl)-5-(hydroxymethyl)oxolane-3,4-diol], the Span in data set [14] is listed as 107.3 ±4.7. Also, the IC50 in data set [14] (10 µM forskolin, n = 3, read-out: pIC50 of HEMADO (converted)) is 0.0288 nM. Besides, in data set [14] (lower plateau), the Emin is given as -3.48 ±2.7 % 10 µM forskolin response. In addition, the Basal in data set [14] (upper plateau) was 103.8 ±4.1.

As usually defined, the Ki is the dissociation constant of the complex between target and ligand, obtained from inhibition or displacement. What is called pKi is the negative decadic logarithm of the Ki, by convention in mol/L. One may read the half-life as the time in which the quantity being followed falls by half.
